What all share (experiment): NCI tumour cell line growth inhibition, 48 h
The test system of assay [1] is CAKI-1 renal.
The subject of assay [2] is HL-60(TB) leukemia.
For assay [3], the system named is HOP-92 NSCLC.
The subject of assay [4] is IGROV1 ovarian.
Assay [5] has as its system NCI-H226 lung.
Assay [6] relates to NCI-H23 lung.
Assay [7] has as its system NCI/ADR-RES ovarian.
Assay [8] deals with OVCAR-4 ovarian.
For assay [9], the system named is OVCAR-8 ovarian.
Assay [10] relates to PC-3 prostate.

Eight compounds from PubChem BioAssay (NCI) can be followed below.

Values joined by “and” are separate entries in the source; they are usually repeats but may differ in a detail not shown here. Identical values can stand only once.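 Cultured in 96-well plates, cells were exposed to test compound for 48 hours across five concentrations. GI50 = concentration required for 50% inhibition of growth. TGI: total growth inhibition.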

Consider `COc1cc(F)c(F)c(Nc2ccc(I)cc2F)c1NS(=O)(=O)C1(CC(O)CO)CC1` (stereo not given), for which the GI50 in assay [1] is 10.2 µM; in assay [2], 7.19 µM; in assay [3] it was 1.13 µM; in assay [4] it was 10.4 µM; in assay [5], 15.2 µM; in [6], 12.1 µM. The GI50 was 18.8 µM in assay [7], 16.6 µM in assay [8], 18.7 µM in [9] and 15.1 µM in assay [10]. Moreover, the TGI in [1] came out at 54.4 µM; in assay [2], 57.7 µM; in [3], 19.6 µM; in [4], 34.4 µM; in assay [5], 49.2 µM; in assay [6], 36.4 µM. For the same compound, the TGI in assay [7] was 57.9 µM; in assay [8] it was greater than 91.9 µM; in [9], 61 µM; in [10], greater than 57.5 µM.

As for `COC(=O)c1sc(-n2cnc3cc(OC)c(OC)cc32)cc1OCc1ccccc1C(F)(F)F`, the GI50 is greater than 25 µM in [1]; greater than 25 µM in assay [2]; 4.31 µM in assay [3]; greater than 25 µM in assay [4]; greater than 25 µM in assay [5]; greater than 25 µM in [6]. The GI50 in [7] is greater than 25 µM; in assay [8], greater than 25 µM; in assay [9], 15.3 µM; in [10], greater than 25 µM. Besides, the TGI in assay [1] was greater than 25 µM; in assay [2] it was greater than 25 µM; in assay [3], 18.1 µM; in assay [4] it was greater than 25 µM; in [5], greater than 25 µM; in [6], greater than 25 µM. Also, the TGI in assay [7], in assay [8], in assay [9] and in assay [10] was greater than 25 µM in each case.

Turning to `OC[C@H]1C[C@](O)(c2ccccc2Cl)[C@@H](c2ccccc2Cl)O1`, the GI50 in assay [1] is 32 µM; in assay [2] it was 16.5 µM; in assay [3], 22.2 µM; in [4], 10.8 µM; in assay [5] it was 26 µM; in [6], 25.9 µM. For the same compound, the GI50 was 29.4 µM in assay [7], 24.3 µM in [8], 26.4 µM in assay [9] and 24.2 µM in [10]. For the same compound, the TGI in assay [1] was found to be 86.1 µM; in [2], 38.7 µM; in [3], 58.8 µM; in assay [4] it was 30.5 µM; in assay [5], 76.3 µM; in assay [6] it was 74.2 µM. For the same compound, the TGI in assay [7] is greater than 100 µM; in [8], 99.2 µM; in assay [9], 86.6 µM; in assay [10], 74.6 µM.

In the case of `O=C(Nc1c[nH]c(=O)[nH]c1=O)Oc1ccccc1`, the TGI in assay [1] is greater than 100 µM; in assay [2], 33.5 µM; in assay [3], greater than 100 µM; in assay [4] it was greater than 100 µM; in [5], greater than 100 µM; in assay [6], greater than 100 µM. In addition, the TGI in assay [7], in assay [8], in assay [9] and in assay [10] was greater than 100 µM in each case.

For the compound `Nc1nc(SCC#CCCl)c2[nH]cnc2n1`, the GI50 is 2.83 µM in assay [1]; 2.08 µM in assay [2]; 2.16 µM in assay [3]; 4.58 µM in assay [4]; 8.02 µM in assay [5]; 4.46 µM in assay [6]. Besides, the GI50 in [7] was 6.16 µM; in assay [8], 4.32 µM; in assay [9], 11.6 µM; in assay [10], 14.6 µM. Moreover, the TGI was 10.6 µM in assay [1]; 6.61 µM in assay [2]; 10.4 µM in assay [3]; 23 µM in [4]; 26.7 µM in assay [5]; 20.1 µM in [6]. Moreover, the TGI is 30.4 µM in assay [7], 67.4 µM in assay [8], 33.1 µM in assay [9] and 75.8 µM in assay [10].

On to `CCc1ccc([OH2+])c(C(=O)[O-])c1.CCc1ccc([OH2+])c(C(=O)[O-])c1.CCc1ccc([OH2+])c(C(=O)[O-])c1.CCc1ccc([OH2+])c(C(=O)[O-])c1.[Cu+2].[Cu+2]`, for which the GI50 in [1] was 24.9 µM; in [2], 2.4 µM; in assay [3], greater than 95.9 µM; in assay [4], greater than 69.6 µM; in assay [5] it was greater than 50.2 µM; in assay [6] it was greater than 100 µM. For the same compound, the GI50 in assay [7] is 17.3 µM; in assay [8], 28.3 µM; in [9], 5.59 µM; in assay [10], greater than 70.5 µM. Also, the TGI was greater than 82.4 µM in assay [1]; greater than 44.4 µM in assay [2]; greater than 100 µM in assay [3]; greater than 100 µM in assay [4]; greater than 100 µM in assay [5]; greater than 100 µM in assay [6]. The TGI in assay [7], in assay [8], in assay [9] and in assay [10] was greater than 100 µM each time.

For the compound `O=C(NOCCO)c1ccc2cncn2c1Nc1ccc(I)cc1F`, the GI50 in assay [1] is 0.111 µM and 0.292 µM; in [2], 0.00191 µM and < 0.01 µM; in assay [3], 0.0147 µM and 0.0103 µM; in [4], 0.013 µM and 0.0532 µM; in [5], 4.86 µM and 7.37 µM; in assay [6], 0.0189 µM and 0.0195 µM. For the same compound, the GI50 was > 10 µM and 29.4 µM in [7]; > 10 µM and 4.29 µM in assay [8]; > 10 µM and 19.4 µM in assay [9]; > 10 µM and 45.4 µM in [10]. The TGI in assay [1] was greater than 100 µM; in assay [2] it was greater than 100 µM; in assay [3], 0.325 µM and 0.0811 µM; in [4] it was greater than 100 µM; in assay [5] it was greater than 100 µM; in assay [6], > 10 µM and 45.2 µM. The TGI in [7], in assay [8], in assay [9] and in assay [10] was greater than 100 µM each time.

Regarding `CN(N=O)c1ccc(/C=C/c2ccnc3ccccc23)cc1`, the TGI in assay [1], in assay [2], in assay [3], in assay [4], in assay [5] and in assay [6] was greater than 100 µM throughout. The TGI in assay [7], in assay [8], in assay [9] and in assay [10] was greater than 100 µM throughout.
